Patent US8329904B2, “Azacyclic derivatives” (Hoffmann-La Roche Inc., priority 2009, dated 2012)

biological target: T1, human HSL (Homo sapiens, UniProt Q05469); test: Human Hormone-Sensitive Lipase (HSL) Enzyme Inhibition Assay; format: biochemical; details: colorimetric assay, 2,3-dimercapto-1-propanol tributyrate (DMPT) substrate, 37° C. for 20 minutes, absorbance at 405 nm; read-out: HSL hum IC50
T1 construct: overlapping PCR to generate a full length human HSL ORF with a 3′-His6 tag; His6 (C); made in house; host or cells: High 5 insect cells (baculovirus, pFast-BAC)
T1 sequence (Q05469 1-1076): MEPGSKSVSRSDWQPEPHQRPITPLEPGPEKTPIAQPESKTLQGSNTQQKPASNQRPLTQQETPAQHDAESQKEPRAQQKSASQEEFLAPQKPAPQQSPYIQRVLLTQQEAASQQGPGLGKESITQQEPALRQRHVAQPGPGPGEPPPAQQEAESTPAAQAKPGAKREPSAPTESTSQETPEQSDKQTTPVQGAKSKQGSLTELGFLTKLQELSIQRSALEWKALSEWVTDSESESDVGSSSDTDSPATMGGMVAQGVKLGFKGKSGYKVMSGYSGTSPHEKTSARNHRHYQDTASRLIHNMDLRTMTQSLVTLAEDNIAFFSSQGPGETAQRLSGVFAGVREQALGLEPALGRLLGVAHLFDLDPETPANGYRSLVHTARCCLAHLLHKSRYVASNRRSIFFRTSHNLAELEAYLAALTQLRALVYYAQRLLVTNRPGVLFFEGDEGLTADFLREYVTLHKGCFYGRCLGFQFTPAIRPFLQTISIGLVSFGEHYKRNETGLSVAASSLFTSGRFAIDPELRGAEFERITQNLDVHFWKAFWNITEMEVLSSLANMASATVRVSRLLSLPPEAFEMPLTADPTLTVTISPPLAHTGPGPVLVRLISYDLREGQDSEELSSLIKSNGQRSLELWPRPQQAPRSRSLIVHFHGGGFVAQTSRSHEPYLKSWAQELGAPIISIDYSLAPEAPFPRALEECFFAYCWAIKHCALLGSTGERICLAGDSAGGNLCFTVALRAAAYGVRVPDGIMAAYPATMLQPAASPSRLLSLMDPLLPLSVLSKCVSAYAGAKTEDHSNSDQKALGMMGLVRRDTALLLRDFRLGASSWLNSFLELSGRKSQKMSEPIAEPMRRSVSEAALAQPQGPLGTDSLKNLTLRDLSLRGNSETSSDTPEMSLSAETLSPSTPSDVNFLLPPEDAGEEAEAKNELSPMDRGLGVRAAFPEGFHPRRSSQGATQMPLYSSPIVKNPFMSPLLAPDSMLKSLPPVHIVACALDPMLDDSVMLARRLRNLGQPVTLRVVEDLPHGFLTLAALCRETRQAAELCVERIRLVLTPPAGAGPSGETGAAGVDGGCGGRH
Procedure, shortened: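 Colorimetric thioester hydrolysis: compounds in DMSO series mixed with DMPT (1.5 mM) in MOPS pH 7.2 with BSA, then baculovirus-expressed His6-tagged full-length human HSL added, 37° C, 20 min. DTNB plus detergents added, 15 min room temperature, absorbance at 405 nm.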

Row | IC50 [nM] | SMILES
1 | 30 | CC(O)(c1ccc(N2CCC3(CCN(S(=O)(=O)c4ccccc4C(F)(F)F)CC3)C2=O)cc1)C(F)(F)F (stereo not drawn) [Example 169, 2-(4-(1,1,1-trifluoro-2-hydroxypropan-2-yl)phenyl)-8-(2-(trifluoromethyl)phenylsulfonyl)-2,8-diazaspiro[4.5]decan-1-one]
2 | 140 | CC(Oc1ccc(N2CCC3(CCN(C(=O)C4(C)CC4(Cl)Cl)CC3)C2=O)cc1)C(F)(F)F (stereo not drawn) [Example 113, 8-(2,2-Dichloro-1-methyl-cyclopropanecarbonyl)-2-[4-(2,2,2-trifluoro-1-methyl-ethoxy)-phenyl]-2,8-diaza-spiro[4.5]decan-1-one]
3 | 600 | O=C1N(c2ccc(OCC3CCCC3)cc2)CCC12CCN(S(=O)(=O)c1ccccc1Cl)CC2 [Example 133, 8-(2-Chloro-benzenesulfonyl)-2-(4-cyclopentylmethoxy-phenyl)-2,8-diaza-spiro[4.5]decan-1-one]
4 | 210 | O=C1N(CCc2ccccc2Cl)CCC12CCN(S(=O)(=O)c1ccccc1Cl)CC2 [Example 242, 8-(2-Chloro-benzenesulfonyl)-2-[2-(2-chloro-phenyl)-ethyl]-2,8-diaza-spiro[4.5]decan-1-one]
5 | 1700 | O=C1N(c2ccc(Cl)nc2)CCC12CCN(S(=O)(=O)c1ccccc1)CC2 [Example 11, 8-Benzenesulfonyl-2-(6-chloro-pyridin-3-yl)-2,8-diaza-spiro[4.5]decan-1-one]
6 | 100 | CC(O)c1ccc(N2CCC3(CCN(S(=O)(=O)c4ccccc4Cl)CC3)C2=O)cc1 (stereo not drawn) [Example 153, 8-(2-Chloro-benzenesulfonyl)-2-[4-(1-hydroxy-ethyl)-phenyl]-2,8-diaza-spiro[4.5]decan-1-one]
7 | 360 | CC(C)Oc1ccc(N2CCC3(CCN(S(=O)(=O)N4CCOCC4)CC3)C2=O)cc1 [Example 15, 2-(4-Isopropoxy-phenyl)-8-(morpholine-4-sulfonyl)-2,8-diaza-spiro[4.5]decan-1-one]
8 | 180 | CCCN(C)C(=O)N1CCC2(CC1)CCN(c1ccc(CC)cc1)C2=O [Example 252, 2-(4-Ethyl-phenyl)-1-oxo-2,8-diaza-spiro[4.5]decane-8-carboxylic acid methyl-propyl-amide]
9 | 70 | CC(C)CS(=O)(=O)N1CCC2(CCN(c3ccc(C(O)C(F)(F)F)cc3)C2=O)CC1 (stereo not drawn) [Example 167, 8-(isobutylsulfonyl)-2-(4-(2,2,2-trifluoro-1-hydroxyethyl)phenyl)-2,8-diazaspiro[4.5]decan-1-one]
10 | 230 | COc1cccc(CCN2CCC3(CCN(S(=O)(=O)c4ccccc4Cl)CC3)C2=O)c1 [Example 244, 8-(2-Chloro-benzenesulfonyl)-2-[2-(3-methoxy-phenyl)-ethyl]-2,8-diaza-spiro[4.5]decan-1-one]
11 | 130 | O=C1N(c2ccc(OC(F)(F)F)cc2)CCC12CCN(S(=O)(=O)C1CC1)CC2 [Example 96, 8-Cyclopropanesulfonyl-2-(4-trifluoromethoxy-phenyl)-2,8-diaza-spiro[4.5]decan-1-one]
12 | 50 | O=C1N(c2ccc(OC(F)(F)F)cc2)CCC12CCN(S(=O)(=O)NCc1ccccc1)CC2 [Example 287, 1-Oxo-2-(4-trifluoromethoxy-phenyl)-2,8-diaza-spiro[4.5]decane-8-sulfonic acid benzylamide]
13 | 110 | O=C(N1CCC2(CC1)CCN(c1ccc(OC(F)(F)F)cc1)C2=O)N1CCCc2ccccc21 [Example 281, 8-(3,4-Dihydro-2H-quinoline-1-carbonyl)-2-(4-trifluoromethoxy-phenyl)-2,8-diaza-spiro[4.5]decan-1-one]
14 | 40 | CCN(C(=O)N1CCC2(CC1)CCN(c1ccc(OC(F)(F)F)cc1)C2=O)c1ccccc1 [Example 279, 1-Oxo-2-(4-trifluoromethoxy-phenyl)-2,8-diaza-spiro[4.5]decane-8-carboxylic acid ethyl-phenyl-amide]
15 | 60 | CN(C(=O)N1CCC2(CC1)CCN(c1ccc(OC(F)(F)F)cc1)C2=O)c1ccccc1 [Example 275, 1-Oxo-2-(4-trifluoromethoxy-phenyl)-2,8-diaza-spiro[4.5]decane-8-carboxylic acid methyl-phenyl-amide]
16 | 250 | O=C1N(c2ccc(OC(F)(F)F)cc2)CCC12CCN(S(=O)(=O)c1ccncc1)CC2 [Example 203, 8-(Pyridine-4-sulfonyl)-2-(4-trifluoromethoxy-phenyl)-2,8-diaza-spiro[4.5]decan-1-one]
17 | 360 | CCc1ccc(N2CCC3(CCN(S(=O)(=O)CCC(F)(F)F)CC3)C2=O)cc1 [Example 30, 2-(4-Ethyl-phenyl)-8-(3,3,3-trifluoro-propane-1-sulfonyl)-2,8-diaza-spiro[4.5]decan-1-one]
18 | 40 | COC(=O)c1ccc(N2CCC3(CCN(S(=O)(=O)c4ccccc4Cl)CC3)C2=O)cc1 [Example 150, 8 4-[8-(2-Chloro-benzenesulfonyl)-1-oxo-2,8-diaza-spiro[4.5]dec-2-yl]-benzoic acid methyl ester]
19 | 200 | O=C(N1CCCC1)N1CCC2(CC1)CCN(c1ccc(OC(F)(F)F)cc1)C2=O [Example 265, 8-(Pyrrolidine-1-carbonyl)-2-(4-trifluoromethoxy-phenyl)-2,8-diaza-spiro[4.5]decan-1-one]
20 | 470 | CCCNC(=O)N1CCC2(CC1)CCN(c1ccc(OC(F)(F)F)cc1)C2=O [Example 251, 1-Oxo-2-(4-trifluoromethoxy-phenyl)-2,8-diaza-spiro[4.5]decane-8-carboxylic acid propylamide]
21 | 40 | CCC(C)c1ccc(N2CCC3(CCN(S(=O)(=O)c4cccs4)CC3)C2=O)cc1 (stereo not drawn) [Example 43, 2-(4-sec-Butyl-phenyl)-8-(thiophene-2-sulfonyl)-2,8-diaza-spiro[4.5]decan-1-one]
22 | 190 | O=C(NCc1ccc(F)cc1)N1CCC2(CC1)CCN(c1ccc(OC(F)(F)F)cc1)C2=O [Example 261, 1-Oxo-2-(4-trifluoromethoxy-phenyl)-2,8-diaza-spiro[4.5]decane-8-carboxylic acid 4-fluoro-benzylamide]
23 | 260 | CCc1ccc(N2CCC3(CCN(S(=O)(=O)c4ccc(F)cc4C(F)(F)F)CC3)C2=O)cc1 [Example 75, 2-(4-Ethyl-phenyl)-8-(4-fluoro-2-trifluoromethyl-benzenesulfonyl)-2,8-diaza-spiro[4.5]decan-1-one]
24 | 170 | CC(Oc1ccc(N2CCC3(CCN(S(=O)(=O)C4CC4)CC3)C2=O)cc1)C(F)(F)F (stereo not drawn) [Example 98, 8-Cyclopropanesulfonyl-2-[4-(2,2,2-trifluoro-1-methyl-ethoxy)-phenyl]-2,8-diaza-spiro[4.5]decan-1-one]
25 | 360 | O=C1N(c2ccc(CO)cc2)CCC12CCN(S(=O)(=O)c1ccccc1Cl)CC2 [Example 141, 8-(2-Chloro-benzenesulfonyl)-2-(4-hydroxymethyl-phenyl)-2,8-diaza-spiro[4.5]decan-1-one]
26 | 80 | Nc1ncccc1S(=O)(=O)N1CCC2(CCN(c3ccc(OC(F)(F)F)cc3)C2=O)CC1 [Example 197, 8-(2-Amino-pyridine-3-sulfonyl)-2-(4-trifluoromethoxy-phenyl)-2,8-diaza-spiro[4.5]decan-1-one]
27 | 110 | Cc1noc(C)c1S(=O)(=O)N1CCC2(CCN(c3ccc(OC(F)(F)F)cc3)C2=O)CC1 [Example 186, 8-(3,5-Dimethyl-isoxazole-4-sulfonyl)-2-(4-trifluoromethoxy-phenyl)-2,8-diaza-spiro[4.5]decan-1-one]
